Source: patent US20170050957A1, “4-AMINO-6-(HETEROCYCLIC)PICOLINATES AND 6-AMINO-2-(HETEROCYCLIC)PYRIMIDINE-4-CARBOXYLATES AND THEIR USE AS HERBICIDES” (Dow AgroSciences LLC, priority 2013, published 2017)
Like-named read-outs stand apart in the source and are kept apart here.

Legend:
[1] = system: Key Broadleaf Weed and Crop Species; experiment: Post-emergent Test II herbicidal activity (Table 15); type: in vivo; details: post-emergence, 336 h, 14 d; for pest or weed control at 35 g/ha: 35 g ai/ha; for pest or weed control at 70 g/ha: 70 g ai/ha; for pest or weed control at 140 g/ha: 140 g ai/ha
Experimental: Post-emergent Test II: Seeds or nutlets of the desired test plant species were planted in Sun Gro Metro-Mix® 360 planting mixture, which typically has a pH of 6.0 to 6.8 and an organic matter content of about 30 percent, in plastic pots with a surface area of 64 square centimeters. When required to ensure good germination and healthy plants, a fungicide treatment and/or other chemical or physical treatment was applied. The plants were grown for 7-21 d in a greenhouse with an approximate 15 h photoperiod which was maintained at about 23-29° C. during the day and 22-28° C. during the night. Nutrients and water were added on a regular basis and supplemental lighting was provided with overhead metal halide 1000-Watt lamps as necessary. The plants were employed for testing when they reached the first or second true leaf stage.
A weighed amount, determined by the highest rate to be tested, of each test compound was placed in a 25 mL glass vial and was dissolved in 4 mL of a 97:3 v/v mixture of acetone and DMSO to obtain concentrated stock solutions. […] The concentrated stock solutions obtained were diluted with 20 mL of an aqueous mixture containing acetone, water, isopropyl alcohol, DMSO, Atplus 411F crop oil concentrate, and Triton® X-155 surfactant in a 48.5:39:10:1.5:1.0:0.02 v/v ratio to obtain spray solutions containing the highest application rates. Additional application rates were obtained by serial dilution of 12 mL of the high rate solution into a solution containing 2 mL of 97:3 v/v mixture of acetone and DMSO and 10 mL of an aqueous mixture containing acetone, water, isopropyl alcohol, DMSO, Atplus 411F crop oil concentrate, and Triton X-155 surfactant in a 48.5:39:10:1.5:1.0:0.02 v/v ratio to obtain 1/2×, 1/4×, 1/8× and 1/16× rates of the high rate. Compound requirements are based upon a 12 mL application volume at a rate of 187 liters per hectare (L/ha). Formulated compounds were applied to the plant material with an overhead Mandel track sprayer equipped with 8002E nozzles calibrated to deliver 187 L/ha over an application area of 0.503 square meters at a spray height of 18 inches (43 cm) above the average plant canopy height. Control plants were sprayed in the same manner with the solvent blank.
The treated plants and control plants were placed in a greenhouse as described above and watered by subirrigation to prevent wash-off of the test compounds. After 14 d, the condition of the test plants as compared with that of the untreated plants was determined visually and scored on a scale of 0 to 100 percent where 0 corresponds to no injury and 100 corresponds to complete kill.

[2] = system: Key Grass and Sedge Weeds as well as Grass Crops; experiment: Post-emergent Test II herbicidal activity (Table 16); type: in vivo; details: post-emergence, 336 h; for pest or weed control at 35 g/ha: 35 g ai/ha; for pest or weed control at 70 g/ha: 70 g ai/ha; for pest or weed control at 140 g/ha: 140 g ai/ha
In short: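 Visual injury rating (0 = none, 100 = complete kill) taken 14 d after treatment, relative to untreated plants. Compounds in acetone/DMSO with crop oil concentrate and Triton X-155 were track-sprayed at 187 L/ha onto seedlings at the first-second true leaf stage.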

[3] = Abutilon theophrasti, velvetleaf (Abutilon theophrasti), read-out: Visual Growth Reduction (%) 14 Days After Application, ABUTH
[4] = Amaranthus retroflexus, redroot pigweed (Amaranthus retroflexus), read-out: Visual Growth Reduction (%) 14 Days After Application, AMARE
[5] = Brassica napus, oilseed rape, canola (Brassica napus), read-out: Visual Growth Reduction (%) 14 Days After Application, BRSNN
[6] = Chenopodium album, lambsquarters (Chenopodium album), read-out: Visual Growth Reduction (%) 14 Days After Application, CHEAL
[7] = Euphorbia heterophylla, wild poinsettia (Euphorbia heterophylla), read-out: Visual Growth Reduction (%) 14 Days After Application, EPHHL
[8] = Helianthus annuus, sunflower (Helianthus annuus), read-out: Visual Growth Reduction (%) 14 Days After Application, HELAN
[9] = Cyperus esculentus, yellow nutsedge (Cyperus esculentus), 14 d, read-out: Visual Growth Reduction (%) 14 Days After Application, CYPES
[10] = Echinochloa crus-galli, barnyardgrass (Echinochloa crus-galli), 14 d, read-out: Visual Growth Reduction (%) 14 Days After Application, ECHCG
[11] = Oryza sativa, rice (Oryza sativa), 14 d, read-out: Visual Growth Reduction (%) 14 Days After Application, ORYSA
[12] = Setaria faberi, giant foxtail (Setaria faberi), 14 d, read-out: Visual Growth Reduction (%) 14 Days After Application, SETFA
[13] = Triticum aestivum, wheat, spring (Triticum aestivum), 14 d, read-out: Visual Growth Reduction (%) 14 Days After Application, TRZAS
[14] = Zea mays, maize, corn (Zea mays), 14 d, read-out: Visual Growth Reduction (%) 14 Days After Application, ZEAMX
[15] = Cyperus esculentus, yellow nutsedge (Cyperus esculentus), 14 days after application, read-out: Visual Growth Reduction (%) 14 Days After Application CYPES
[16] = Echinochloa crus-galli, barnyardgrass (Echinochloa crus-galli), 14 days after application, read-out: Visual Growth Reduction (%) 14 Days After Application ECHCG
[17] = Oryza sativa, rice (Oryza sativa), 14 days after application, read-out: Visual Growth Reduction (%) 14 Days After Application ORYSA
[18] = Setaria faberi, giant foxtail (Setaria faberi), 14 days after application, read-out: Visual Growth Reduction (%) 14 Days After Application SETFA
[19] = Triticum aestivum, wheat, spring (Triticum aestivum), 14 days after application, read-out: Visual Growth Reduction (%) 14 Days After Application TRZAS
[20] = Zea mays, maize, corn (Zea mays), 14 days after application, read-out: Visual Growth Reduction (%) 14 Days After Application ZEAMX

SMILES: COC(=O)c1nc(-c2ccc3cc[nH]c3c2)cc(N)c1Cl [Compound 1.21]
- pest or weed control at 35 g/ha [1, 3]: 60 to 74%
- pest or weed control at 70 g/ha [1, 3]: 60 to 74%
- pest or weed control at 35 g/ha [1, 4]: 0 to 29%
- pest or weed control at 70 g/ha [1, 4]: 0 to 29%
- pest or weed control at 35 g/ha [1, 5]: 0 to 29%
- pest or weed control at 70 g/ha [1, 5]: 0 to 29%
- pest or weed control at 35 g/ha [1, 6]: 45 to 59%
- pest or weed control at 70 g/ha [1, 6]: 85 to 94%
- pest or weed control at 35 g/ha [1, 7]: 75 to 84%
- pest or weed control at 70 g/ha [1, 7]: 85 to 94%
- pest or weed control at 35 g/ha [1, 8]: 45 to 59%
- pest or weed control at 70 g/ha [1, 8]: 75 to 84%
- pest or weed control at 35 g/ha [2, 9]: 0 to 29%
- pest or weed control at 70 g/ha [2, 9]: 0 to 29%
- pest or weed control at 140 g/ha [2, 9]: 0 to 29%
- pest or weed control at 35 g/ha [2, 10]: 0 to 29%
- pest or weed control at 70 g/ha [2, 10]: 0 to 29%
- pest or weed control at 35 g/ha [2, 11]: 0 to 29%
- pest or weed control at 70 g/ha [2, 11]: 0 to 29%
- pest or weed control at 140 g/ha [2, 11]: 0 to 29%
- pest or weed control at 140 g/ha [2, 12]: 0 to 29%
- pest or weed control at 35 g/ha [2, 13]: 0 to 29%
- pest or weed control at 70 g/ha [2, 13]: 0 to 29%
- pest or weed control at 140 g/ha [2, 13]: 0 to 29%
- pest or weed control at 35 g/ha [2, 14]: 0 to 29%
- pest or weed control at 70 g/ha [2, 14]: 0 to 29%
- pest or weed control at 140 g/ha [2, 14]: 0 to 29%
- melting point: 83 to 85 °C

SMILES: Nc1c(F)c(-c2cccc3occc23)nc(C(=O)O)c1Cl [Compound 2.17]
- pest or weed control at 140 g/ha [1, 3]: 75 to 84%
- pest or weed control at 140 g/ha [1, 4]: 95 to 100%
- pest or weed control at 140 g/ha [1, 5]: 75 to 84%
- pest or weed control at 140 g/ha [1, 6]: 95 to 100%
- pest or weed control at 140 g/ha [1, 7]: 95 to 100%
- pest or weed control at 140 g/ha [1, 8]: 85 to 94%
- pest or weed control at 140 g/ha [2, 9]: 95 to 100%
- pest or weed control at 140 g/ha [2, 10]: 75 to 84%
- pest or weed control at 140 g/ha [2, 11]: 0 to 29%
- pest or weed control at 140 g/ha [2, 12]: 0 to 29%
- pest or weed control at 140 g/ha [2, 13]: 0 to 29%
- pest or weed control at 140 g/ha [2, 14]: 30 to 44%
- melting point: 170 to 173 °C

SMILES: Nc1c(F)c(-c2cccc3ccsc23)nc(C(=O)O)c1Cl [Compound 3.25]
- pest or weed control at 140 g/ha [1, 3]: 0 to 29%
- pest or weed control at 140 g/ha [1, 4]: 95 to 100%
- pest or weed control at 140 g/ha [1, 5]: 75 to 84%
- pest or weed control at 140 g/ha [1, 6]: 95 to 100%
- pest or weed control at 140 g/ha [1, 7]: 0 to 29%
- pest or weed control at 140 g/ha [1, 8]: 45 to 59%
- pest or weed control at 140 g/ha [2, 15]: 0 to 29%
- pest or weed control at 140 g/ha [2, 16]: 0 to 29%
- pest or weed control at 140 g/ha [2, 17]: 0 to 29%
- pest or weed control at 140 g/ha [2, 18]: 0 to 29%
- pest or weed control at 140 g/ha [2, 19]: 0 to 29%
- pest or weed control at 140 g/ha [2, 20]: 0 to 29%
- melting point: 183 to 185 °C

SMILES: COC(=O)c1nc(-c2ccc3cnn(C)c3c2)c(F)c(N)c1Cl [Compound 4.07]
- pest or weed control at 140 g/ha [1, 3]: 45 to 59%
- pest or weed control at 140 g/ha [1, 5]: 45 to 59%
- pest or weed control at 140 g/ha [1, 6]: 0 to 29%
- pest or weed control at 140 g/ha [1, 7]: 60 to 74%
- pest or weed control at 140 g/ha [1, 8]: 95 to 100%
- pest or weed control at 140 g/ha [2, 15]: 0 to 29%
- pest or weed control at 140 g/ha [2, 16]: 0 to 29%
- pest or weed control at 140 g/ha [2, 17]: 0 to 29%
- pest or weed control at 140 g/ha [2, 18]: 0 to 29%
- pest or weed control at 140 g/ha [2, 19]: 0 to 29%
- pest or weed control at 140 g/ha [2, 20]: 0 to 29%
- melting point: 187 to 190 °C
